{"source": "patent US8026271B2", "about": "“Formulations of indol-3-yl-2-oxoacetamide compounds” (National Health Research Institutes, priority 2008, dated 2011)", "key": {"[1]": {"test": "Oral bioavailability of BPR0C261 (po vs IV PK profiles, plasma by HPLC-Tandem Mass spectrometry)", "type": "in vivo", "conditions": "mouse, 2 mg/kg, po by gavage, read-out: Oral bioavailability (F %)", "experimental": "The oral bioavailability of BPR0C261 was assessed by comparing the pharmacokinetic (“PK”) profiles obtained from orally administered (“po”) BPR0C261 in various oral formulation described herein with the PK profile obtained from intravenously administered (“IV”) BPR0C261.\nAn intravenous formulation of BPR0C261 (carriers: 5% DMSO, 25% Cremophor EL, and 70% water, v/v/v) was administered intravenously by a bolus injection to a group of three mice each via the tail vein, in a single dose of 2 mg/Kg body weight. A blood sample (0.15 mL) was drawn at different points (pre-dose, 2 min, 5 min, 15 min, 30 min. 1 hr, 2 hr, 4 hr, 6 hr, 8 hr, and 24 hr after dosing) from each animal via the cardiac puncture and stored in ice (0-5° C.). […]\nPlasma was separated from the blood sample by centrifugation at 15,000 g for 15 min at 4° C. […] All plasma samples were analyzed for the BPR0C261 concentrations by HPLC-Tandem Mass spectrometry.\nBPR0C261 plasma concentration data were used to obtain the PK profile for the IV or po administration, i.e., a plasma-concentration vs. time curve. The area under the curve (“AUC”) was then calculated. Oral bioavailability (F %) was determined by comparing the dose-normalized area under the curve for the oral formulation (“AUCpo/dosepo”) with that for the intravenous formulation (“AUCIV/doseIV”), i.e., F %=[AUCpo/dosepo]/[AUCIV/doseIV]."}, "[2]": {"test": "Solubility of BPR0C261 in different carriers or mixed carriers", "type": "physicochemical", "conditions": "room temperature", "experimental": "The solubility of BPR0C261 in different drug carriers or mixed carriers was evaluated. The solubility is defined as the maximum amount of a compound dissolved in a carrier or mixed carrier at room temperature."}}, "note": "Read-outs that look alike come from different tables or passages of the source.", "data": [{"molecule": "Cc1cc(Cn2cc(C(=O)C(=O)Nc3cc(C)ns3)c3ccccc32)on1", "note": "[BPR0C261, N-(3-methylisothiazol-5-yl)-2-[1-(3-methylisoxazol-5-ylmethyl)-1H-indol-3-yl]-2-oxoacetamide]", "values": [{"measurement": "bioavailability", "setting": "[1]; formulation containing 5% DMSO, 25% Cremophor EL, and 70% water (v/v/v), vs IV 2 mg/Kg", "value": 18, "unit": "%"}, {"measurement": "bioavailability", "setting": "[1]; formulations containing TPGS, Transcutol, and optionally PEG 400, vs IV 2 mg/Kg", "value": "25 to 80", "unit": "%"}, {"measurement": "solubility", "setting": "[2]; aqueous with cosolvent or surfactant or cyclodextrin, carrier 3: DMSO (20%), Tween 80 (10%), and DDW (70%)", "value": "< 5000", "unit": "µg/mL"}, {"measurement": "solubility", "setting": "[2]; aqueous with cosolvent or surfactant or cyclodextrin, carrier 13: DMSO (5%), Cremophor EL (25%), and DDW (70%)", "value": "< 5000", "unit": "µg/mL"}, {"measurement": "solubility", "setting": "[2]; aqueous with cosolvent or surfactant or cyclodextrin, carrier 14: Methylcellulose (1%), Tween 80 (2%), PEG 400 (10%), and DDW (87%)", "value": "< 1000", "unit": "µg/mL"}, {"measurement": "solubility", "setting": "[2]; carrier 1: Double distilled water (DDW)", "value": "~0.12", "unit": "µg/mL"}, {"measurement": "solubility", "setting": "[2]; organic solvent or mixture, carrier 2: DMSO", "value": "~5000", "unit": "µg/mL"}, {"measurement": "solubility", "setting": "[2]; organic solvent or mixture, carrier 4: Ethanol (3%), Glycerol (2%), PEG 400 (70%), PG (20%), and Transcutol (5%)", "value": "10000 to 30000", "unit": "µg/mL"}, {"measurement": "solubility", "setting": "[2]; organic solvent or mixture, carrier 5: Glycerol (5%) and PEG 400 (95%)", "value": "10000 to 30000", "unit": "µg/mL"}, {"measurement": "solubility", "setting": "[2]; organic solvent or mixture, carrier 6: TPGS (20%) and PEG 400 (80%)", "value": "10000 to 30000", "unit": "µg/mL"}, {"measurement": "solubility", "setting": "[2]; organic solvent or mixture, carrier 7: Transcutol (10%) and PEG 400 (90%)", "value": "10000 to 30000", "unit": "µg/mL"}, {"measurement": "solubility", "setting": "[2]; organic solvent or mixture, carrier 8: DMSO (10%), PEG 400 (80%), and propylene glycol (10%)", "value": "10000 to 30000", "unit": "µg/mL"}, {"measurement": "solubility", "setting": "[2]; organic solvent or mixture, carrier 9: Transcutol (10%), Cremophor EL (20%), and PEG 400 (70%)", "value": "10000 to 30000", "unit": "µg/mL"}, {"measurement": "solubility", "setting": "[2]; organic solvent or mixture, carrier 10: TPGS (20%), Transcutol (20%), and PEG 400 (60%)", "value": "~50000", "unit": "µg/mL"}, {"measurement": "solubility", "setting": "[2]; organic solvent or mixture, carrier 11: TPGS (40%), Transcutol (20%), and PEG 400 (40%)", "value": "~50000", "unit": "µg/mL"}, {"measurement": "solubility", "setting": "[2]; organic solvent or mixture, carrier 12: TPGS (75%) and Transcutol (25%)", "value": "~50000", "unit": "µg/mL"}]}]}
